# Test results reported in patent US20070088033A1, “Diaryl Substituted Pyridinones” (priority 2002, published 2007).
# Biological target: T1, human p38 kinase alpha (Homo sapiens, UniProt Q16539)
# T1 construct: The coding region of the human p38 cDNA was obtained by PCR-amplification from RNA isolated from the human monocyte cell line THP.1; GST (N); made in house; host or cells: E. coli DH10B
# Assay: p38 kinase in vitro assay
# Format: biochemical
# Details: Table I; average of n trials, n=1 if not reported; read-out: p38 Alpha IC50
# Procedure: The ability of compounds to inhibit human p38 kinase alpha was evaluated using two in vitro assay methods. In the first method, activated human p38 kinase alpha phosphorylates a biotinylated substrate, PHAS-I (phosphorylated heat and acid stable protein-insulin inducible), in the presence of gamma ^32p-ATP (^32P-ATP). PHAS-I was biotinylated prior to the assay and provides a means of capturing the substrate, which is phosphorylated during the assay. p38 Kinase was activated by MKK6. Compounds were tested in 10 fold serial dilutions over the range of 100 μM to 0,001 μM using 1% DMSO. Each concentration of inhibitor was tested in triplicate.
# All reactions were carried out in 96 well polypropylene plates. Each reaction well contained 25 mM HEPES pH 7.5, 10 mM magnesium acetate and 50 μM unlabeled ATP. […] Activated human p38 kinase alpha was used at 1 μg per 50 μl reaction volume representing a final concentration of 0.3 μM. Gamma ^32P-ATP was used to follow the phosphorylation of PHAS-I. ^32P-ATP has a specific activity of 3000 Ci/mmol and was used at 1.2 μCi per 50 μl reaction volume. The reaction proceeded either for one hour or overnight at 30° C.
# Following incubation, 20 μl of reaction mixture was transferred to a high capacity streptavidin coated filter plate (SAM-streptavidin-matrix, Promega) prewetted with phosphate buffered saline, The transferred reaction mix was allowed to contact the streptavidin membrane of the Promega plate for 1-2 minutes. […] Filter plates were air-dried and 20 μl of scintillant was added. The plates were sealed and counted.
# A second assay format was also employed that is based on p38 kinase alpha induced phosphorylation of EGFRP (epidermal growth factor receptor peptide, a 21 mer) in the presence ^33P-ATP. Compounds were tested in 10 fold serial dilutions over the range of 100 μM to 0.001 μM in 1% DMSO. Each concentration of inhibitor was tested in triplicate. Compounds were evaluated in 50 μl reaction volumes in the presence of 25 mM Hepes pH 7.5, 10 mM magnesium acetate, 4% glycerol, 0.4% bovine serum albumin, 0.4 mM DTT, 50 μM unlabeled ATP, 25 μg EGFRP (200 μM), and 0.05 μCi ^33p-ATP. Reactions were initiated by addition of 0.09 μg of activated, purified human GST-p38 kinase alpha. Activation was carried out using GST-MKK6 (5:1,p38:MKK6) for one hour at 30° C. in the presence of 50 μM ATP. Following incubation for 60 minutes at room temperature, the reaction was stopped by addition of 150 μl of AG 1×8 resin in 900 mM sodium formate buffer, pH 3.0 (1 volume resin to 2 volumes buffer). The mixture was mixed three times with pipetting and the resin was allowed to settle. A total of 50 μl of clarified solution head volume was transferred from the reaction wells to Microlite-2 plates. 150 μl of Microscint 40 was then added to each well of the Microlite plate, and the plate was sealed, mixed, and counted.
# T1 sequence (Q16539 whole entry): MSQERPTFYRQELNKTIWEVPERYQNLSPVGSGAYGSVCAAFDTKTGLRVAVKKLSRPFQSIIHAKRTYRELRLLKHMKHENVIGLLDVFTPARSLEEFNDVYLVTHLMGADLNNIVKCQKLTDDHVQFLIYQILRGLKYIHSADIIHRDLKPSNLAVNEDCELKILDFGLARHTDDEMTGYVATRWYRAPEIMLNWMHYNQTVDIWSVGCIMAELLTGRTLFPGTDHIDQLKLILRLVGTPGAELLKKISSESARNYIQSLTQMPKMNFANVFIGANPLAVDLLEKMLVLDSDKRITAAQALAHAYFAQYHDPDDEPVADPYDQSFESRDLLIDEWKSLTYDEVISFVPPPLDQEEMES
row,Structure (SMILES),IC50 [nM]
1,O=c1c(Br)c(OCc2ccc(F)cc2F)ccn1Cc1cccc(F)c1 [E],129
2,O=c1c(Br)c(OCc2ccccc2)ccn1Cc1ccc(F)cc1 [D],170
3,CSc1ccc(Cn2ccc(OCc3ccccc3)c(Br)c2=O)cc1 [W],450
4,O=c1c(Cl)c(OCc2ccccc2)ccn1Cc1ccccc1 [X],450
5,Cc1cc(OCc2ccc(F)cc2)c(Br)c(=O)n1-c1c(Cl)cccc1Cl [P],403

# Same assay, conditions: Table II; several values in a cell = repeat determinations; read-out: p38A
row,Structure (SMILES),IC50 [nM]
1,O=c1c(Br)c(OCc2ccc(Cl)cc2)ccn1Cc1ccccc1 [MM],1380
2,O=c1c(Br)c(OCc2ccccc2)ccn1CCc1ccsc1 [QQQ],3310
3,O=c1c(Br)c(OCc2ccc(F)cc2)ccn1Cc1cccc(Cl)c1 [UU],1140
4,O=c1cc(OCc2ccccc2)ccn1Cc1cccc(F)c1 [PPP],35800
5,O=c1cc(OCc2ccccc2)ccn1Cc1ccccc1F [FFFF],33800

# Same assay, conditions: Table III; n = number of times assayed, n=1 if not reported; read-out: p38 Alpha IC50
row,Structure (SMILES),IC50 [nM]
1,O=c1c(Br)c(OCc2ccccc2CO)ccn1Cc1cccc(F)c1 [CCCCC],663
2,Cc1cc(OCc2cccc(Cl)c2)c(Br)c(=O)n1Cc1ccccc1 [OOOOO],1600
3,O=c1c(Br)c(OCc2ccc(F)cc2F)ccn1Cc1ccncc1 [SSSS],141
4,Cc1cc(CCc2ccccc2)c(Br)c(=O)n1Cc1cccc(F)c1 [LLLLL],1710
5,O=c1c(Br)c(NCc2ccccc2)ccn1Cc1cccc(F)c1 [HHHHH],1180

# Tested on: not given
# Assay: not given
# Details: not given
row,Structure (SMILES),melting point [°C]
1,"Cc1ccc(Cn2ccc(OCc3ccccc3)cc2=O)cc1 [Example 1, 4-(benzyloxy)-1-(4-methylbenzyl)pyridin-2(1H)-one]",142.8 to 143.3
2,"CCn1ccc(OCc2ccccc2)c(Br)c1=O [Example 20, 4-(benzyloxy)-3-bromo-1-ethylpyridin-2(1H)-one]",61.3 to 64.8
3,"O=c1c(Br)c(OCc2ccccc2)ccn1Cc1cccc(C(F)(F)F)c1 [Example 31, 4-(benzyloxy)-3-bromo-1-[3-(trifluoromethyl)benzyl]pyridin-2(1H)-one]",181.5 to 181.6
4,"O=C(O)c1ccc(Cn2ccc(OCc3ccccc3)c(Br)c2=O)cc1 [Example 15, 4-{[4-(benzyloxy)-3-bromo-2-oxopyridin-1(2H)-yl]methyl}benzoic acid]",250.8 to 255.7
5,"O=c1c(Br)c(OCc2c(Cl)cccc2Cl)ccn1Cc1ccccc1 [Example 461, 1-Benzyl-3-bromo-4-[2,6-(dichlorobenzyl)oxy]pyridin-2(1H)-one]",156.3 to 157.9
6,"O=c1cc(OCc2cccc(Cl)c2)ccn1Cc1ccccc1 [Example 45, 1-Benzyl-4-[(3-chlorobenzyl)oxy]pyridin-2(1H)-one]",95.5 to 95.7
7,"O=c1c(Br)c(OCc2ccccc2Cl)ccn1Cc1ccccc1 [Example 43, 1-Benzyl-3-bromo-4-[(2-chlorobenzyl)oxy]pyridin-2(1H)-one]",143.3 to 145.5
8,"O=c1c(Br)c(OCc2ccccc2)ccn1CCc1cccs1 [Example 30, 4-(benzyloxy)-3-bromo-1-(2-thien-2-ylethyl)pyridin-2(1H)-one]",128 to 129.5
9,Cl.O=c1c(Br)c(OCc2ccccc2)ccn1CC1CCCNC1 (stereo not drawn),138.1 to 139.2
10,"Cn1ccc(OCc2ccccc2)c(Br)c1=O [Example 23, 4-(benzyloxy)-3-bromo-1-methylpyridin-2(1H)-one]",61.3 to 64.8
11,"O=c1cc(OCc2ccccc2Cl)ccn1Cc1ccccc1 [Example 42, 1-Benzyl-4-[(2-chlorobenzyl)oxy]pyridin-2(1H)-one]",124.6 to 125
12,"O=c1c(Br)c(OCc2ccccc2)ccn1Cc1ccc(OCc2ccccc2)cc1 [Example 12, 4-(benzyloxy)-1-[4-(benzyloxy)benzyl]-3-bromopyridin-2(1H)-one]",137.6 to 144.3
13,"Cc1ccc(COc2ccn(Cc3ccccc3)c(=O)c2Br)cc1 [Example 44, 1-Benzyl-3-bromo-4-[(4-methylbenzyl)oxy]pyridin-2(1H)-one]",149 to 149.7
14,"O=c1c(Br)c(O)ccn1Cc1ccc(O)cc1 [Example 21, 3-bromo-4-hydroxy-1-(4-hydroxybenzyl)pyridin-2(1H)-one]",102 to 108
15,"O=c1c(Br)c(OCc2ccccc2C(F)(F)F)ccn1Cc1ccccc1 [Example 47, 1-Benzyl-3-bromo-4-{[2-(trifluoromethyl)benzyl]oxy}pyridin-2(1H)-one]",133.2 to 133.5
16,Cl.O=c1c(Br)c(OCc2ccccc2)ccn1CC1CCNCC1,207.9
17,"O=c1cc(OCc2c(Cl)cccc2Cl)ccn1Cc1ccccc1 [Example 40, 1-Benzyl-4-[2,6-(dichlorobenzyl)oxy]pyridin-2(1H)-one]",151.6 to 152
18,"Cc1ccc(Cn2ccc(OCc3ccccc3)c(Br)c2=O)cc1 [Example 2, 4-(benzyloxy)-3-bromo-1-(4-methylbenzyl)pyridin-2(1H)-one]",150.4 to 151.2
19,"O=c1c(Br)c(OCc2ccccc2)ccn1CCc1ccsc1 [Example 29, 4-(benzyloxy)-3-bromo-1-(2-thien-3-ylethyl)pyridin-2(1H)-one]",134 to 134.3
20,O=c1c(Br)c(SCc2ccccc2)ccn1Cc1ccccc1 [Example 46],180.6 to 182.1
21,"NC(=NO)c1ccc(Cn2ccc(OCc3ccccc3)c(Br)c2=O)cc1 [Example 24, 4-{[4-(benzyloxy)-3-bromo-2-oxopyridin-1(2H)-yl]methyl}-N′-hydroxybenzenecarboximidamide]",210.2 to 212.2
